From patent US11845809B2, “Maleate of SCY-635 and uses thereof in medicine” (priority 2018, dated 2023)
≈ marks a conversion by molar mass, not a printed value. Read-outs that look alike come from different tables or passages of the source.

Columns and labels:
[1] = format: physicochemical; settings: for Final pH of supernatant: water, RT
Text: (§1) Crystalline maleate was recommended as a leading salt and further evaluated by kinetic solubility and physicochemical stability.

[2] = One-week physicochemical stability evaluation (HPLC purity); settings: for Purity (area%) / Purity of initial (%): open, one week
Method: Physicochemical stability of crystalline maleate was evaluated under 25° C./60% RH-open and 40° C./75% RH-open for one week.

[3] = format: physicochemical; settings: for Final pH of supernatant: FaSSIF, RT
Text: as §1

physchem = format: physicochemical; settings: fassif, thermodynamic from solid, Solubility (S)
stimulated Jurkat cells = settings: cited from earlier work
hepatitis C virus (HCV) [4] = settings: cited from earlier work
cytochrome P450 1A2 = settings: cited from earlier work
cyclophilin A = cyclophilin A (Homo sapiens, UniProt P62937); settings: cited from earlier work
cytochrome P450 2B6 = settings: cited from earlier work
[5] = in vivo, cited from earlier work
[6] = system: stimulated human peripheral blood mononuclear cells; settings: cited from earlier work
calcineurin = settings: at concentrations up to 2 μM; cited from earlier work
hepatitis C virus (HCV) [7] = settings: cited from earlier work; remark: listed apart in the source
cytochrome P450 3A4 = settings: cited from earlier work
P-glycoprotein = P-glycoprotein (Homo sapiens, UniProt P08183); settings: cited from earlier work
Sequence of P-glycoprotein (P08183 whole entry): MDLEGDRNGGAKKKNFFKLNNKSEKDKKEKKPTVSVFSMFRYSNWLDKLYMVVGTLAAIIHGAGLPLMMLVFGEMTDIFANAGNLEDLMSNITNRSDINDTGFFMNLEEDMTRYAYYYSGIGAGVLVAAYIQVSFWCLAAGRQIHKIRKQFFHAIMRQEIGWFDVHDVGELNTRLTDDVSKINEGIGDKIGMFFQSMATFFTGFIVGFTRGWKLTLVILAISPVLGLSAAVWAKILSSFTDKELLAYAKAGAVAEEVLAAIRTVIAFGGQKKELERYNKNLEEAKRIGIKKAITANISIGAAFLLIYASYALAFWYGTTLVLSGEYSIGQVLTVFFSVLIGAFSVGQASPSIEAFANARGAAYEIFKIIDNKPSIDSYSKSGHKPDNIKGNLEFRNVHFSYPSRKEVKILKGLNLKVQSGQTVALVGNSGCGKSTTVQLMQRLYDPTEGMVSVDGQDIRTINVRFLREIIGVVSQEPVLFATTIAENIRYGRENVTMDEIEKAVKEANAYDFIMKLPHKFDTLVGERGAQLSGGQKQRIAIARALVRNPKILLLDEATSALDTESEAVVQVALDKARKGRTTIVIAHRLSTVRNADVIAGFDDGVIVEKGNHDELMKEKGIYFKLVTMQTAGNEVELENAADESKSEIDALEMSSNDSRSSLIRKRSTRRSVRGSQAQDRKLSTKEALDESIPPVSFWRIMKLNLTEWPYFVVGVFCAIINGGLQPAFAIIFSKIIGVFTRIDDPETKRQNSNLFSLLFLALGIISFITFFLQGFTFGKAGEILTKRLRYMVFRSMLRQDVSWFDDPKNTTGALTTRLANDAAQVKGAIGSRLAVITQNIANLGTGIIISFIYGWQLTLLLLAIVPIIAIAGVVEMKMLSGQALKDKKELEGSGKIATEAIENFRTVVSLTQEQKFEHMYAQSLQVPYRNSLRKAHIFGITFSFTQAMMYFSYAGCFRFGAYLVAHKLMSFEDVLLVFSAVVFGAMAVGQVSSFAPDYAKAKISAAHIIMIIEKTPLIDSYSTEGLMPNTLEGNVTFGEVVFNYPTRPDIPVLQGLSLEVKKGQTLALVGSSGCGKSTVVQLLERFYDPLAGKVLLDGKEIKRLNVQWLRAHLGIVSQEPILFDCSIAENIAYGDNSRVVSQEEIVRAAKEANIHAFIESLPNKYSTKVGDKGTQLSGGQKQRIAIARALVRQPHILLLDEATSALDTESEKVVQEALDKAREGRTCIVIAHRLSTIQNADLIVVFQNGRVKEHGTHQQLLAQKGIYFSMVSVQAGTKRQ

Sequence of cyclophilin A (P62937 whole entry, species assumed): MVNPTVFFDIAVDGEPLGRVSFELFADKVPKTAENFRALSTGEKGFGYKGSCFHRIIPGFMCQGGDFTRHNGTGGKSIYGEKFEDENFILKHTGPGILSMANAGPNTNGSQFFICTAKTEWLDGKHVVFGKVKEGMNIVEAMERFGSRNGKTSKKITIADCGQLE

Maleate
Solubility compared with amorphous and crystalline freebase [1]: significant solubility improvement
Final pH of supernatant ([1]; 6 hrs): 4.9
Purity (area%) ([2]; 25° C./60% RH): 100.0 area%
Purity of initial (%) ([2]; 25° C./60% RH): 100.0%
Purity (area%) ([2]; 40° C./75% RH): 100.0 area%
Purity of initial (%) ([2]; 40° C./75% RH): 100.0%
Chemical stability ([2]; both 25° C./60% RH and 40° C./75% RH, at least one week): good chemical stability
Solubility compared with amorphous and crystalline freebase [3]: significant solubility improvement
Final pH of supernatant ([3]; 6 hrs): 6.0

C/C=C/C[C@@H](C)[C@@H](O)[C@H]1C(=O)N[C@@H](CC)C(=O)N(C)[C@H](SCCN(C)C)C(=O)N(C)[C@@H](CC(C)(C)O)C(=O)N[C@@H](C(C)C)C(=O)N(C)[C@@H](CC(C)C)C(=O)N[C@@H](C)C(=O)N[C@H](C)C(=O)N(C)[C@@H](CC(C)C)C(=O)N(C)[C@@H](CC(C)C)C(=O)N(C)[C@@H](C(C)C)C(=O)N1C [Freebase Type A]
solubility at 2 h (physchem): 3700 µg/mL (≈ 2800 µM)
solubility at 4 h (physchem): 4700 µg/mL (≈ 3560 µM)
solubility at 6 h (physchem): 5600 µg/mL (≈ 4240 µM)
Solubility (S) ([1]; 2 h): 100 µg/mL (≈ 75.7 µM)
Solubility (S) ([1]; 4 h): 100 µg/mL (≈ 75.7 µM)
Solubility (S) ([1]; 6 h): 300 µg/mL (≈ 227 µM)
Final pH of supernatant ([1]; 2 hrs): 6.7
Final pH of supernatant ([1]; 4 hrs): 6.5
Final pH of supernatant ([1]; 6 hrs): 6.6
Final pH of supernatant ([3]; 2 hrs): 6.8
Final pH of supernatant ([3]; 4 hrs): 6.8
Final pH of supernatant ([3]; 6 hrs): 7.0

C/C=C/C[C@@H](C)[C@@H](O)[C@H]1C(=O)N[C@@H](CC)C(=O)N(C)[C@H](SCCN(C)C)C(=O)N(C)[C@@H](CC(C)(C)O)C(=O)N[C@@H](C(C)C)C(=O)N(C)[C@@H](CC(C)C)C(=O)N[C@@H](C)C(=O)N[C@H](C)C(=O)N(C)[C@@H](CC(C)C)C(=O)N(C)[C@@H](CC(C)C)C(=O)N(C)[C@@H](C(C)C)C(=O)N1C [Freebase amorphous]
Final pH of supernatant ([1]; 2 hrs): 4.9
Final pH of supernatant ([1]; 4 hrs): 4.7
Final pH of supernatant ([1]; 6 hrs): 6.2
Final pH of supernatant ([3]; 2 hrs): 6.9
Final pH of supernatant ([3]; 4 hrs): 6.9
Final pH of supernatant ([3]; 6 hrs): 7.0

C/C=C/C[C@@H](C)[C@@H](O)[C@H]1C(=O)N[C@@H](CC)C(=O)N(C)[C@H](SCCN(C)C)C(=O)N(C)[C@@H](CC(C)(C)O)C(=O)N[C@@H](C(C)C)C(=O)N(C)[C@@H](CC(C)C)C(=O)N[C@@H](C)C(=O)N[C@H](C)C(=O)N(C)[C@@H](CC(C)C)C(=O)N(C)[C@@H](CC(C)C)C(=O)N(C)[C@@H](C(C)C)C(=O)N1C [SCY-635, (3S,6S,9S,12R,15S,18S,21S,24S,27R,30S,33S)-27-((2-(dimethylamino)ethyl)thio)-30-ethyl-33-((1R,2R,E)-1-hydroxy-2-methylhex-4-en-1-yl)-24-(2-hydroxy-2-methylpropyl)-6,9,18-triisobutyl-3,21-diisopropyl-1,4,7,10,12,15,19,25,28-nonamethyl-1,4,7,10,13,16,19,22,25,28,31-undecaazacyclotritriacontan-2,5,8,11,14,17,20,23,26,29,32-undecaone]
Inhibition of interleukin-2 secretion compared with cyclosporine (stimulated Jurkat cells): weaker inhibitor
Antiviral activity in combination (hepatitis C virus (HCV) [4]; with alpha interferon 2b): synergistic antiviral activity
Antiviral activity in combination (hepatitis C virus (HCV) [4]; with ribavirin): additive antiviral activity
Induction of cytochrome P450 1A2 (cytochrome P450 1A2): did not induce
Inhibition of peptidyl prolyl isomerase activity of cyclophilin A (cyclophilin A): at nanomolar concentrations
Induction of cytochrome P450 2B6 (cytochrome P450 2B6): did not induce
Blood and liver concentrations of parent drug versus replicon 50% effective dose ([5]; po): exceeded the 50% effective dose
Oral bioavailability [5]: orally bioavailable
Inhibition of interleukin-2 secretion compared with cyclosporine [6]: weaker inhibitor
Inhibition of calcineurin phosphatase activity (calcineurin): no detectable inhibition
Suppression of HCV replication in vitro (hepatitis C virus (HCV) [7]): potent suppression
Induction of cytochrome P450 3A4 (cytochrome P450 3A4): did not induce
P-glycoprotein inhibition (P-glycoprotein): weak inhibitor
P-glycoprotein substrate (P-glycoprotein): poor substrate
